Numbers after ± are expanded uncertainties.
Experiment: xn = mol fraction of the nth substance listed
Details: 101.3 kPa, Liquid

COCCOC [1,2-dimethoxyethane] + ClCCCl
mass density [kg/m3]
Details	308.15 K	313.15 K	318.15 K	323.15 K	328.15 K	333.15 K
x2 = 0.0251	–	852.25 ± 0.53	846.59 ± 0.53	840.89 ± 0.54	835.13 ± 0.55	829.32 ± 0.55
x2 = 0.05	–	859.77 ± 0.51	854.09 ± 0.52	848.36 ± 0.52	842.55 ± 0.53	836.72 ± 0.54
x2 = 0.0501	–	859.82 ± 0.51	854.13 ± 0.52	848.39 ± 0.52	842.6 ± 0.53	836.76 ± 0.54
x2 = 0.075	–	867.42 ± 0.5	861.7 ± 0.5	855.93 ± 0.51	850.11 ± 0.52	844.24 ± 0.52
x2 = 0.1	–	875.11 ± 0.49	869.35 ± 0.49	863.55 ± 0.5	857.7 ± 0.51	851.8 ± 0.51
x2 = 0.1552	–	892.54 ± 0.46	886.71 ± 0.46	880.84 ± 0.47	874.92 ± 0.48	868.95 ± 0.48
x2 = 0.2001	–	906.96 ± 0.43	901.08 ± 0.44	895.15 ± 0.44	889.17 ± 0.45	883.15 ± 0.46
x2 = 0.2501	–	923.37 ± 0.4	917.42 ± 0.41	911.42 ± 0.42	905.37 ± 0.42	899.27 ± 0.43
x2 = 0.3002	–	940.18 ± 0.38	934.15 ± 0.38	928.08 ± 0.39	921.97 ± 0.4	915.79 ± 0.4
x2 = 0.35	–	957.24 ± 0.35	951.14 ± 0.36	945 ± 0.37	938.81 ± 0.37	932.56 ± 0.38
x2 = 0.4001	–	974.8 ± 0.33	968.62 ± 0.33	962.41 ± 0.34	956.14 ± 0.35	949.82 ± 0.35
x2 = 0.45	–	992.71 ± 0.31	986.46 ± 0.31	980.16 ± 0.32	973.82 ± 0.32	967.42 ± 0.33
x2 = 0.5	1017.36 ± 0.32	1011.06 ± 0.31	1004.73 ± 0.3	998.35 ± 0.3	991.93 ± 0.3	985.45 ± 0.31
x2 = 0.5001	1017.45 ± 0.32	1011.16 ± 0.31	1004.83 ± 0.3	998.45 ± 0.3	992.02 ± 0.3	985.53 ± 0.31
x2 = 0.55	1036.29 ± 0.34	1029.91 ± 0.33	1023.49 ± 0.32	1017.03 ± 0.31	1010.51 ± 0.3	1003.94 ± 0.3
x2 = 0.6001	1055.67 ± 0.36	1049.2 ± 0.35	1042.69 ± 0.34	1036.13 ± 0.33	1029.53 ± 0.32	1022.87 ± 0.32
x2 = 0.65	1075.5 ± 0.38	1068.94 ± 0.37	1062.34 ± 0.36	1055.68 ± 0.35	1048.98 ± 0.35	1042.24 ± 0.34
x2 = 0.7	1095.88 ± 0.41	1089.21 ± 0.4	1082.51 ± 0.39	1075.76 ± 0.38	1068.97 ± 0.37	1062.12 ± 0.36
x2 = 0.75	1116.88 ± 0.43	1110.11 ± 0.42	1103.31 ± 0.41	1096.45 ± 0.4	1089.55 ± 0.39	1082.61 ± 0.38
x2 = 0.8	1138.31 ± 0.46	1131.44 ± 0.45	1124.52 ± 0.44	1117.56 ± 0.43	1110.55 ± 0.42	1103.5 ± 0.41
x2 = 0.85	1160.61 ± 0.49	1153.62 ± 0.48	1146.58 ± 0.47	1139.51 ± 0.46	1132.39 ± 0.45	1125.22 ± 0.44
x2 = 0.9	1183.44 ± 0.51	1176.32 ± 0.5	1169.16 ± 0.49	1161.97 ± 0.48	1154.73 ± 0.47	1147.44 ± 0.46
x2 = 0.925	1195 ± 0.53	1187.82 ± 0.52	1180.61 ± 0.51	1173.35 ± 0.5	1166.05 ± 0.49	1158.7 ± 0.48
x2 = 0.975	1218.9 ± 0.56	1211.59 ± 0.55	1204.25 ± 0.54	1196.86 ± 0.53	1189.43 ± 0.52	1181.97 ± 0.51

— the NIST ThermoML archive (doi:10.1021/je101361u)
